From US9896423B2, “Deuterium substituted 1-[2-(2,4-dimethyl-phenylsulfanyl)-phenyl]piperazine compound or derivatives thereof, and pharmaceutical composition and use thereof” (Jiangsu Jibeier Pharmaceutical Co. Ltd., priority 2014, dated 2018)
Structures can show the parent of a compound that is named as a salt.

Tests used:
Male ICR mice = experiment: Mice swimming test; type: in vivo; conditions: for effect on length of time that the mice stopped swimming vs blank control: two successive weeks; for Duration without Movement within the Last 4 min of the Whole 6 min: mice, gavage once a day for 14 days, n = 10, x ± s
Text: (§1) The following method is used for testing the antidepression effect of the compound of the present application. ICR mice or SD rats, gavaged for two successive weeks, were subjected to mice swimming test, mice tail suspension test and rats swimming test. See below for details of the tests and results.
Male ICR mice weighing 18 g to 20 g were used. They were fed on sterilized standard feed.
The compound administered in the test was 1-{2-[2,4-bis(trideuteriomethyl)phenylsulfanyl]phenyl}piperazine hydrobromic acid salt (XX for short). Vortioxetine (YY for short) was used as a control sample. Venlafaxine HCl (from Wyeth, USA) was used as a positive control.
Vortioxetine (15 mg) was combined with 10% hydroxypropyl-β-cyclodextrin to form a solution of 100 mL and was administered at daily dose of 3 mg/kg. 1-{2-[2,4-bis(trideuteriomethyl)phenylsulfanyl]phenyl}piperazine hydrobromic acid salt (15 mg and 7.5 mg) was combined with 10% hydroxypropyl-β-cyclodextrin to form two solutions of 100 mL and was administered at daily doses of 3 mg/kg and 1.5 mg/kg, respectively. Venlafaxine HCl (75 mg) was combined with 0.5% CMC-Na to form a solution of 100 mL and was administered at daily dose of […].
A recording and analysis system for small-animal behavior (Noldus) was used.
All the eighty mice were subjected to prescreening one day before the administration. The mice, fasted for 4 hours were put in a round glass tank (ø 14 cm×h 20 cm, with water of 10 cm depth and at a temperature of 25° C.) to swim. […] The whole swimming course was recorded by the video and the data were collected and analyzed automatically by Noldus software.
The forty qualified mice were divided into 4 groups, each of which had 10 mice, according to the Excel random grouping.
The medicaments were administered to each group by gavage with the amount of 0.2 ml per 10 g of body weight, once a day for 14 successive days. One hour later after the last oral administration, the mice were allowed to swim for 6 min. The video recorded the whole swimming course, and the Noldus software automatically collected and analyzed the data.
The data was given as “average±standard deviation” (x±s). One-way analysis of variance (one-way ANOVA) was used for data difference statistics. Differences among the groups were determined by P<0.05.

Male SD rats = experiment: Rats swimming test; type: in vivo; conditions: for effect on length of time that the rats stopped swimming vs blank control: 14 days; for Duration without Move within 5 min: rats swimming, gavage 14 days, n = 10, x ± s
Text: as §1
Male SD rats weighing 200 to 220 g were used and they were fed with sterilized standard feed. The medicaments were the same as those in the mice tail suspension test, but the dosage administered to rats was half of that to mice.
Drug solution preparation: Since the dosage applied on rats was 1 ml/100 g body weight, the medicament solutions used in this test had the same concentrations as those used on mice.
The apparatus was the same as that in the […].
The rats were fasted for 4 hours, put in a round glass tank (ø 18 cm×h 40 cm, with water of 15 cm depth and at a temperature of 25° C.), and were allowed to swim for 15 min. One tank accommodated one rat at a time. The tank was refilled with clean water for another rat after one rat finished swimming. The rats were dried with a hot-air blower after swimming.
The forty rats were divided into 4 groups, each of which has 10 rats, according to the Excel random grouping.
The medicaments were correspondingly administered 1 ml/100 g body weight by gavage, once a day, to the animals in each test group for 14 successive days. The rat swimming test was performed one hour later after the last administration.
The data was given as “average±standard deviation” (x±s). One-way analysis of variance (ANOVA) was used for data difference statistics. Differences among the groups were determined by P<0.05.

[2H]C([2H])([2H])c1ccc(Sc2ccccc2N2CCNCC2)c(C([2H])([2H])[2H])c1 [XX, 1-{2-[2,4-bis(trideuteriomethyl)phenylsulfanyl]phenyl}piperazine hydrobromic acid salt]
effect on length of time that the mice stopped swimming vs blank control (Male ICR mice; 1.5 mg/kg gavage): markedly shortened
effect on length of time that the mice stopped swimming vs blank control (Male ICR mice; 3 mg/kg gavage): markedly shortened
Duration without Movement within the Last 4 min of the Whole 6 min (Male ICR mice; 1.5 mg/kg): 173.4 ± 36.1 s
Duration without Movement within the Last 4 min of the Whole 6 min (Male ICR mice; 3 mg/kg): 176.3 ± 37.5 s
effect on length of time that the rats stopped swimming vs blank control (Male SD rats; 0.75 mg/kg gavage): showed a tendency to shorten
effect on length of time that the rats stopped swimming vs blank control (Male SD rats; 1.5 mg/kg gavage): markedly shortened
Duration without Move within 5 min (Male SD rats; 0.75 mg/kg): 242.4 ± 43.2 s
Duration without Move within 5 min (Male SD rats; 1.5 mg/kg): 226.2 ± 43.2 s

Cc1ccc(Sc2ccccc2N2CCNCC2)c(C)c1 [YY, 1-[2-(2,4-dimethyl-phenylsulfanyl)-phenyl]piperazine]
effect on length of time that the mice stopped swimming vs blank control (Male ICR mice; 3 mg/kg gavage): did not shorten
Duration without Movement within the Last 4 min of the Whole 6 min (Male ICR mice; 3 mg/kg): 199.6 ± 26.1 s
effect on length of time that the rats stopped swimming vs blank control (Male SD rats; 1.5 mg/kg gavage): did not shorten
Duration without Move within 5 min (Male SD rats; 1.5 mg/kg): 267.8 ± 27.0 s
